Data published in publication PMC7345905, “Microbial Metabolite Urolithin B Inhibits Recombinant Human Monoamine Oxidase A Enzyme” (Metabolites, 2020).
“And” between values parts separate entries of the source, which are not always exact repeats. Equal values may be shown once.

What was measured:
human recombinant MAO-A = target: T1, human recombinant MAO-A (Homo sapiens, UniProt P21397); experiment: MAO-Glo MAO-A inhibition assay; assay type: biochemical; details: 100 µM
T1 construct: purchased Sigma-Aldrich
T1 sequence (P21397 1-527): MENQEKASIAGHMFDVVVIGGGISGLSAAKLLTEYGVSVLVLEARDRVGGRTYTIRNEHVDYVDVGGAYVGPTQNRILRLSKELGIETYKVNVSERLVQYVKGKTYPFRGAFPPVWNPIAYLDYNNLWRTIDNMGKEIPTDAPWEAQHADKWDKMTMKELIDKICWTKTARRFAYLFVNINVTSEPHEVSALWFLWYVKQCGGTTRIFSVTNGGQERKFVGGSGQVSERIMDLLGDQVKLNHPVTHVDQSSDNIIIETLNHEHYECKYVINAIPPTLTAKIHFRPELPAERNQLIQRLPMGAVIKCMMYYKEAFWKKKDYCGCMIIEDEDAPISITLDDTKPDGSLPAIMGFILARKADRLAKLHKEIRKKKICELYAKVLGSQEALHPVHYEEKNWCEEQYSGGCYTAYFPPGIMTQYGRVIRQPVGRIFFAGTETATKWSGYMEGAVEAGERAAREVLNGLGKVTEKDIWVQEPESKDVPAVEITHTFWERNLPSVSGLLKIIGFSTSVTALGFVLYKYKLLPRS
Procedure: (§1) MAO inhibition assays were performed using a MAO-Glo™ Assay kit (Promega) according to the manufacturer’s instructions. Briefly, 1 µg of human recombinant MAO-A and MAO-B enzyme isoforms were incubated with 160 and 16 µM of MAO substrates, respectively. […] The enzyme reaction was quenched by the addition of a luciferin detection reagent. […] An equal volume of dimethyl sulfoxide (0.1%) was added to the enzyme assay as a control. After 1 h of incubation, the luminescence was measured with a multimode microplate reader (Synergy HT, BioTek, Winooski, VT, USA) to determine the MAO enzyme activities. Initially, the inhibition potential of all the test compounds was evaluated at a concentration of 100 μM. The control reaction (with no inhibitor) with vehicle (DMSO 0.1%) was set at 100% activity. To determine IC50 of the test compounds, the dose dependent enzyme assays were performed. We used range of 0.1 to 50 μM concentrations for MAO-A and 0.1 to 200 μM concentrations of test compounds for the MAO-B enzyme activities. The type of enzyme inhibition was determined using variable concentrations of MAO-A substrate (10–360 µM) and MAO-B substrate (2–64 µM) for the respective enzyme assay. […] A Lineweaver–Burk double reciprocal plot was generated, and the mode of inhibition was determined by visual examination of the plot. The slope of the reciprocal plots was plotted against the inhibitor concentrations and determined the x-axis intercept that represented the inhibitor constant, Ki value.

human recombinant MAO-B = target: T2, human recombinant MAO-B (Homo sapiens, UniProt P27338); experiment: MAO-Glo MAO-B inhibition assay; assay type: biochemical
T2 construct: purchased Sigma-Aldrich
T2 sequence (P27338 1-520): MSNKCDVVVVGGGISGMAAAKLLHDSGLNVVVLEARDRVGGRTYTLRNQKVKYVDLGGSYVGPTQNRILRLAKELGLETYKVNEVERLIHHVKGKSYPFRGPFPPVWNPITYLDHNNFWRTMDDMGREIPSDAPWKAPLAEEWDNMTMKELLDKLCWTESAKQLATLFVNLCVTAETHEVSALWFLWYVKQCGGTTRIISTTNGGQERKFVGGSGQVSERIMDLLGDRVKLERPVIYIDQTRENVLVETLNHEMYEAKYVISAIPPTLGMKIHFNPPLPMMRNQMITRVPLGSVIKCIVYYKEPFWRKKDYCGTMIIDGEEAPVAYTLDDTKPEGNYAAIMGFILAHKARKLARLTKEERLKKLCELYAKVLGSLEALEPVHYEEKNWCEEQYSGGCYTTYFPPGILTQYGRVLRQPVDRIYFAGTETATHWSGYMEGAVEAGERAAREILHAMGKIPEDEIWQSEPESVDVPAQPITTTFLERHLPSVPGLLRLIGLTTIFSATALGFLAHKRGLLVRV
Procedure: as §1

O=c1oc2c(O)c(O)cc3c(=O)oc4c(O)c(O)cc1c4c23 [EA, ellagic acid]
MAO-A enzyme assay, Percent of control (human recombinant MAO-A; 100 µM (Figure 1A), N=1-3): 80.5551% of control and 100.559% of control and 100.148% of control
inhibition of MAO-A enzyme activity (human recombinant MAO-A; compared to vehicle): failed to inhibit
inhibition at 100 µM (human recombinant MAO-B; 100 μM): 20 to 30%
MAO-B enzyme assay, Percent of control (human recombinant MAO-B; 100 µM (Figure 1C), N=1-3, 100 µM): 89.6601% of control and 87.5901% of control
remaining activity at 100 µM (human recombinant MAO-B; 100 µM (Figure 1C), N=1-3, read-out: MAO-B enzyme assay, Percent of control): 88.7%
